Assay results taken from patent publication US8664271B2, “Stabilized leukotriene B4 (LTB4) agent pharmaceutical formulation” (LTB4 Sweden AB, priority 2004, dated 2014).

Assays:
Format in all cases: physicochemical
[1] = Forced degradation (40° C.) of aqueous LTB4 Na salt solutions at different concentrations; settings: aqueous isotonic pH 7.5, 0.01% EDTA
Protocol: A solution of LTB4 (acid form) at the concentration of 12 mg/ml in ethanol/water, 95/5 (from Cascade Biochem, U.K.), was neutralized with an equivalent of sodium hydroxide to generate the Na salt. […] The ethanolic solution of LTB4 Na salt was evaporated (see Example 1) until an oily residue is obtained. The residue was then redissolved in a phosphate buffered sodium chloride solution (saline) (30 mM sodium phosphate, pH 7.5) containing 0.01% EDTA in order to obtain an isotonic solution of LTB4 Na salt at 25 mg/ml. LTB4 Na salt solution at 0.1 mg/ml was obtained by dilution of the 25 mg/ml solution with an isotonic 30 mM sodium phosphate buffered saline, pH 7.5 containing 0.01% EDTA. Aliquots of the solutions were dispensed in 2 ml type I glass vials as described in Example 1, and stored under air, in the dark, at 40±5° C. LTB4 and impurities were analyzed at the indicated times by reverse phase HPLC using UV detection at 270 nm.

[2] = Effect of pH (phosphate buffer) on stability of aqueous LTB4 Na salt solution at 17.5 μg/ml
Protocol: Aqueous isotonic LTB4 Na salt solutions at the concentration of 17.5 μg/ml were obtained by dilution in phosphate buffered saline (3 mM sodium phosphate buffer, pH 7.5, 8.5, 9.5 and 10.5) containing 0.01% EDTA of an LTB4 Na salt solution at 25 mg/ml (Example 2). Solutions of LTB4 Na salt at 17.5 μg/ml of the 4 different pH were dispensed in 2 ml vials for storage under air, in the dark at 4±4° C. or 20±5° C. for 15 months prior to reverse phase HPLC analysis of LTB4 and impurities, as described in Example 1.

[3] = Forced degradation of ethanolic solutions of LTB4 (acid form and Na salt)
Protocol: The ethanolic solution of LTB4 (acid form) (EtOH/water, 95/5) obtained from the manufacturer (Cascade Biochem, UK) was diluted with EtOH/water, 95/5 to generate ethanolic solutions of LTB4 (acid form) at 9 and 0.9 mg/ml. Ethanolic solutions of the sodium salt of LTB4 at 9 and 0.9 mg/ml were obtained by adding 1.05 equivalent of sodium hydroxide. Solutions of the sodium salt of LTB4 at the concentration of 9 and 0.9 mg/ml in 75/25 EtOH/10 mM glycine in water at pH 10.5 (sodium hydroxide), were obtained by mixing 3 volumes of solutions of the sodium salt of LTB4 at 12 and 1.2 mg/ml in EtOH/water, 95/5 with 1 volume of 40 mM glycine buffer at pH 10.5. Solutions were dispensed in 2 ml vials for storage under air in the dark at −80° C. and 40±5° C. for 17 months prior to reverse phase HPLC analysis of LTB4 and impurities as described in Example 1.

[4] = Effect of pH (phosphate/glycine buffer) on stability of aqueous LTB4 Na salt solution at 1.75 mg/ml
Protocol: Aqueous isotonic LTB4 Na salt solutions at the concentration of 1.75 mg/ml in phosphate/glycine buffered saline (3 mM sodium phosphate and 10 mM glycine buffer, pH 7.5, 8.5, 9.5 and 10.5) containing 0.01% EDTA were obtained by dilution of a 25 mg/ml solution of LTB4 Na salt (see Example 2) with the appropriate phosphate/glycine buffered saline containing 0.01% EDTA. Solutions were dispensed in 2 ml vials for storage under air, in the dark at 4±4° C. and 20±5° C. for 9 months prior to reverse phase HPLC analysis of LTB4 and impurities as described in Example 1.

[5] = Effect of glycine buffer strength and pH on stability of aqueous LTB4 Na salt solutions; settings: 5 months at 40° C.; for level of impurities: 35 μg/ml
Protocol: Aqueous isotonic LTB4 Na salt solutions at the concentration of 35 and 350 μg/ml in phosphate buffered saline ([…]) containing 0.01% EDTA and various concentrations of glycine (from 0.01 mM to 10 mM) were obtained by dilution of a 25 mg/ml solution of LTB4 Na salt (Example 2). Solutions of LTB4 Na salt at 35 and 350 μg/ml at the 4 different glycine concentrations were dispensed in 2 ml vials for storage under air in the dark at 40±5° C. for 5 months prior to reverse phase HPLC analysis of LTB4 and impurities as described in Example 1.

[6] = Stability of freeze-dried LTB4 Na salt solutions (mannitol, with or without HSA); settings: for level of impurities: freeze-dried solution 35 μg/ml, pH 7.5, 4% mannitol
Protocol: Aqueous isotonic LTB4 Na salt solutions at the concentration of 35 μg/ml in phosphate buffered saline (3 mM sodium phosphate buffer, pH 7.5 or 9.5) containing 0.01% EDTA were obtained as described in Example 5. Mannitol was added to all solutions to the final concentration of 4% in order to generate a solid residue (mannitol bread) containing LTB4 Na salt and all components of the excipient upon freeze-drying. Fatty acid free (delipidated) human serum albumine (HSA, Sigma Chemicals, St-Louis, Mo.) was added to some of the solutions to the final concentration of 1 mg/ml prior to final pH adjustment (to 7.5 or 9.5). Solutions were dispensed in 2 ml vials, frozen at −20° C. and freeze-dried. The vials containing the freeze-dried solutions (mannitol breads) were then sealed as described in Example 1 (but under air instead of argon), and stored in the dark at 40±5° C. After 1.5 or 4.5 months, vials were opened and the mannitol breads (containing LTB4) were dissolved using 1 ml of water to regenerate the original LTB4 Na salt solutions at 35 μg/ml. LTB4 and impurities were then analyzed by reverse phase HPLC as described in Example 1.

stability of 25 mg/ml solution compared with 0.1 mg/ml solution [1]: much less stable
degradation of LTB4 ([2]; pH 7.5 to 10.5, 15 months of storage at 4° C.): very little degradation
effect of increasing pH on stability ([2]; phosphate buffered saline pH 7.5 to 10.5, 0.01% EDTA, 15 months, more evident at 20° C.): strikingly increases the stability
impurity level ([3]; 0.9 mg/ml in 75/25 EtOH/10 mM glycine pH 10.5, 17 months at 40° C.): 4.3 % of AUC
impurity level ([3]; 0.9 mg/ml in 95/5 EtOH/water, 17 months at 40° C.): 4.9 % of AUC
impurity level ([3]; 9 mg/ml in 75/25 EtOH/10 mM glycine pH 10.5, 17 months at 40° C.): 3.8%
level of impurities ([3]; 9.0 mg/ml in EtOH/water 95/5, 17 months at 40° C., AUC at 270 nm): 5.4 % of AUC
effect of increasing pH on stability ([4]; 1.75 mg/ml, phosphate/glycine buffered saline pH 7.5 to 10.5, 0.01% EDTA, 9 months at 4° C. and 20° C.): strikingly increases the stability
effect of increasing pH on solution stability ([4]; forced degradation, storage at 40° C., data not shown): dramatic improvement
level of impurities ([5]; pH 7.5, 10 mM glycine, data not shown): 20%
level of impurities ([5]; pH 9.5, 10 mM glycine): 6.5%
impact of glycine buffer concentration on stability ([5]; glycine 0.01 mM to 10 mM, pH 9.5, 35 μg/ml): little impact
level of impurities ([6]; 1.5 months at 40° C.): 22.7%
level of impurities ([6]; 4.5 months at 40° C.): 51.3%
level of impurities ([6]; redissolved immediately (time 0)): 2.9%
decrease in the level of impurities by addition of HSA ([6]; freeze-dried, pH 7.5, HSA 1 mg/ml, 1.5 months of storage at 40° C.): ~50%
SMILES: CCCCC/C=C\C[C@@H](O)/C=C/C=C/C=C\[C@@H](O)CCCC(=O)[O-].[Na+] [LTB4 Na salt]
effect of elevation of pH from 7.5 to 9.5 prior to freeze-drying ([6]; freeze-dried, 1.5 months (with HSA) or 4.5 months at 40° C.): striking decrease in the level of impurities
